Values after ≈ are worked out from the molar mass of the structure shown. Like-named read-outs stand apart in the source and are kept apart here.
Key:
PVM (strain 15) = assay: Plaque inhibition assay, PVM; type: cell-based, pneumonia virus of mice; details: for Plaque size: PVM plaque assay; for IC50: murine pneumonia virus, PVM, HEp2 cells
Experimental: (§1) An identical assay procedure was carried out for hRSV (strain A2) bovine RS (strain Snook) and PVM (strain 15). Virus stocks were diluted 10 fold in GMEM (Invitrogen) so that the wells containing cells received sufficient virus to generate approximately 2000, 200 and 20 plaques per well.
(§2) Cells of a standard cell line known to support pneumovirus replication (typically HEp2 or BSC1 cells) were grown in standard 12 well plates at 37° C. in an atmosphere of 5% (v/v) CO2 until confluent. Medium was aspirated from the cells and replaced with 200 μl aliquots of virus. Aliquots were prepared by diluting virus stocks 10-fold in GMEM (Invitrogen) as described above with no FCS. A mock (no virus) was also set up to test cell viability. The virus was incubated with the cells for 1 hour at 33° C. with gentle rocking every 5-10 minutes. The inocula were removed and 2 ml of overlay medium was added. Overlay medium was either test (plus compound) or control (medium alone or medium containing DMSO). The plates were incubated at 33° C. for 4-8 days to allow plaques to develop as indicated. A volume of 1 ml of additional overlay medium (containing the test compound as appropriate) was added every 3 days. All virus dilutions were carried out with each concentration of test compound, or treated as controls, and each was carried out in triplicate.
(§3) Following incubation, cells were fixed by addition of an equal volume of 4% (v/v) glutaraldehyde (Sigma) in PBS with further incubation for a minimum of 2 hours. The fixing solution was washed off under a slow flowing stream of water and 1 ml of crystal violet (0.075% w/v: Sigma) was added and left for 20 minutes at room temperature. The crystal violet was removed and the fixed cell monolayers washed. Plates were air dried. Plaques counts were recorded from wells with >20 and <200 in number. These numbers provide the most robust statistical reliability for viable plaque counts.
(§4) Compounds 1, 4 and 6 were also tested against bovine RSV and pneumonia virus of mice (PVM).
A full plaque assay was carried out for compound 4 using HEp2 cells, with assays of 5 days and 6 days after incubation.

HEp2 or BSC1 cells = assay: Toxicity to cells in the TCID50 screen (mock control); type: cell-based; details: cellular RSV TCID50 assay tables
Experimental: This method provides a rapid approach to initially screen compounds and was developed as an increased number of compounds were synthesised. […] Virus was then added over 5 different half log dilutions starting at a multiplicity of infection of 0.02 plus mock control. Three dilutions of compound plus a DMSO control were screened per plate. […] Identical plate repeats for each compound dilution were fixed in subsequent days as indicated.

hRSV (strain A2) = assay: Plaque inhibition assay, hRSV; type: cell-based, human respiratory syncytial virus; details: for Plaque size relative to DMSO control: hRSV plaque assay; for IC50: human respiratory syncytial virus, read-out: IC50 (plaque number vs DMSO control)
Experimental: Example: Plaque inhibition assay
as §1
The overlay medium also contained the compound to be tested at appropriate concentrations. Typically the 6 concentrations of the test compounds used were: 100 μM, 31.6 μM, 10 μM, 3.16 μM, 1 μM and 0.316 μM.
Stocks of the test compounds were prepared in DMSO (Sigma) (carrier). Each stock compound was diluted 1 in 200 in overlay medium to give dilutions stated above.
as §2, §3
This experimental approach screens the ability of compounds to block the formation of plaques.

Bovine RSV = assay: Plaque inhibition assay, bovine RSV; type: cell-based, bovine respiratory syncytial virus; details: for Plaque size: bRSV plaque assay; for IC50: bovine RSV, 6-day assay, HEp2 cells
Experimental: as §1, §2, §3, §4
The compounds were tested with a 6-day assay using HEp2 cells.

RSV = assay: 96 well plate TCID50 (cellular RSV TCID50 assay); type: cell-based; details: for Activity: summary of activities in cellular RSV TCID50 assay, symbols − to +++++ not defined
Experimental: This method provides a rapid approach to initially screen compounds and was developed as an increased number of compounds were synthesised. Cells of a standard cell line known to support pneumovirus replication (typically HEp2 or BSC1 cells) were grown to 95% confluence in a 96 well plate. Virus was then added over 5 different half log dilutions starting at a multiplicity of infection of 0.02 plus mock control. Three dilutions of compound plus a DMSO control were screened per plate. […] Identical plate repeats for each compound dilution were fixed in subsequent days as indicated.
Stained plates were read at 595 nm, higher optical density (OD) readings indicate more viable cells remain.

[1] = Solubility in cell medium; type: physicochemical; details: for Solubility behaviour in cell medium: at 100 μM; for Solubility in cell medium: solution of ligand in DMSO (20 mM) diluted in cell media to 100 μM, scale from 'very poor' (almost insoluble) to 'very good' (freely soluble over extended periods at 4° C.)
HEp2 cells [2] = assay: MTT toxicity assay; type: cell-based; details: for Appearance of cell monolayers: compared with carrier controls
Experimental: All experiments shown were carried out in HEp2 cells. Cells were grown in 96 well plates overnight as previously described in 10% FCS medium to 95% confluence level. The medium was aspirated off and replaced with 200ul media with 2% FCS +/− compounds in DMSO carrier as indicated at an identical dilution series to that used in the plaque assays. 8 wells were used per compound/carrier alone dilution. An additional 2 rows of 8 cells were grown in medium alone for reference and subsequently 8 would be used as a cell death control as described below. Cells were incubated at 33° C. as indicated. If the incubation period exceeded 4 days the medium was replaced with the appropriate amount of fresh medium plus compound.
MTT assays were commenced 4 hours before the time period expired. Here 20 uL of MTT [(3-{4,5-dimethylthiazol-2-yl}-2,5-diphenyltetrazolium bromide)] solution (7.5 mg/ml in
PBS) was added. […] The cells were placed back in the incubator at 33° C. After 4 hours, 100 μL of a stop solution (50% formamide, 20% w/v SDS) was added and pipetted to dissolve the substrate. Plates were then left overnight to allow the bubbles to disappear and the OD was recorded at 595 nm. Following subtraction of background solution colour (cell death control), the optical density was expressed as a percentage compared to the DMSO control on each appropriate plate.

HEp2 cells [3] = assay: Toxicity observed in plaque assay, HEp2 cells; type: cell-based
Experimental: as §2

BSC1 cells = assay: Toxicity observed in plaque assay, BSC1 cells; type: cell-based; details: at 100 μM
Experimental: as §2

[4] = HEp-2, 120 h, hRSV, HEp2 cells, Day 5
[5] = Bovine orthopneumovirus, HEp-2, 144 h, read-out: IC50

Row | SMILES | Toxicity (HEp2 or BSC1 cells) | Plaque size relative to DMSO control (hRSV (strain A2)) | Solubility in cell medium [1] | IC50 (hRSV (strain A2); [4]) | Activity (RSV) | further results
1 | Cc1ccccc1NC(=O)Nc1cccc([N+](=O)[O-])c1 [Compound 1, 3-(2-methylphenyl)-1-(3-nitrophenyl)urea] | toxic at 32 μM | significantly reduce the size of plaques | poor | – | – | Plaque size (PVM (strain 15)): significantly reduce the size of plaques; Plaque size relative to DMSO control (hRSV (strain A2); listed as compound 1): smaller than in the DMSO control; Plaque size (Bovine RSV): significantly reduce the size of plaques; IC50 (Bovine RSV): precipitated out before 50% reduction was seen; Activity in the TCID50 assay at higher concentration (RSV; at >10 μM): no increase in activity; Solubility behaviour in cell medium [1]: appearance of insolublity; solubility ([1]; cell medium, aqueous buffer, kinetic from dmso stock, read-out: Upper limit of soluble concentration): 5 to 10 µM (≈ 1.36 to 2.71 µg/mL); Sensitivity in MTT assay (HEp2 cells [2]; days 3 and 4, disappeared after 5 days): increased sensitivity; Concentration above which inhibition of activity is seen (MTT) (HEp2 cells [2]; over the time course): above 10 μM
2 | Cc1ccccc1NC(=O)Nc1cccc(C#N)c1 [Compound 3, 3-(3-cyanophenyl)-1-(2-methylphenyl)urea] | low | much smaller | good | ~50 µM | – | Plaque size (hRSV (strain A2); hRSV, HEp2 cells, 5 days, at 31.6 μM and to some extent 10 μM): very small
3 | CSc1cccc(NC(=O)Nc2ccccc2C)c1 [Compound 4, 1-(2-methylphenyl)-3-[3-(methylsulfanyl)phenyl]urea] | some toxicity at 100 μM | significantly reduce the size of plaques | good | 4.1 µM | – | Plaque size (PVM (strain 15)): significantly reduce the size of plaques; IC50 (PVM (strain 15); HEp-2, 120 h, day 5): 32 µM; IC50 (PVM (strain 15); HEp-2, 144 h, day 6): 100 µM; IC50 (hRSV (strain A2); HEp-2, 144 h, hRSV, HEp2 cells, Day 6): 8.5 µM; IC50 (hRSV (strain A2); HEp-2, 168 h, hRSV, HEp2 cells, Day 7): 15 µM; IC50 (Bovine RSV; [5]): 80 µM; Plaque size (Bovine RSV): significantly reduce the size of plaques; Toxicity in plaque assay (HEp2 cells [3]; at 10 μM): No obvious toxicity; Toxicity in plaque assay (HEp2 cells [3]; at 31.6 μM): to some degree; Toxicity in plaque assay (HEp2 cells [3]; at 100 μM): showed toxicity; Appearance of cell monolayers (HEp2 cells [2]): appeared intact
4 | Cc1ccccc1NC(=O)Nc1ccc(C#N)cc1 [Compound 6, 1-(4-cyanophenyl)-3-(2-methylphenyl)urea] | low | significantly reduce the size of plaques | good | 10 µM | – | Plaque size (PVM (strain 15)): significantly reduce the size of plaques; IC50 (plaque number vs DMSO control) (hRSV (strain A2); hRSV, HEp2 cells, Day 6): 50% reduction was not reached; IC50 (plaque number vs DMSO control) (hRSV (strain A2); hRSV, HEp2 cells, Day 7): 50% reduction was not reached; IC50 (Bovine RSV; [5]): 15 µM; Plaque size (Bovine RSV): significantly reduce the size of plaques; Appearance of cell monolayers (HEp2 cells [2]): appeared intact
5 | CSc1cccc(NC(=O)NCCCOCCOCCOCCCNC(=O)Nc2cccc(SC)c2)c1 [Compound 36, 1-[3-(methylsulfanyl)phenyl]-3-[3-(2-{2-[3-({[3-(methylsulfanyl)-phenyl]carbamoyl}amino)propoxy]ethoxy}ethoxy)propyl]urea] | – | – | good | – | – | melting point: 106 to 108 °C
6 | CSc1ccc(NC(=O)NCCCOCCOCCOCCCNC(=O)Nc2ccc(SC)cc2)cc1 [Compound 37, 1-[4-(methylsulfanyl)phenyl]-3-[3-(2-{2-[3-({[4-(methylsulfanyl)-phenyl]carbamoyl}amino)propoxy]ethoxy}ethoxy)propyl]urea] | toxic at 50 μM | – | good | 17.5 µM | – | Solubility behaviour in cell medium [1]: some signs of precipitating out of solution; Toxicity in plaque assay (HEp2 cells [3]; at 100 μM): showed toxicity; Appearance of cell monolayers (HEp2 cells [2]): appeared intact
7 | Cc1ccccc1NC(=O)Nc1cccc(Cl)c1 [Compound 39, 1-(3-chlorophenyl)-3-(o-tolyl)urea] | Some toxicity at 100 μM | reduction in plaque numbers (as shown) and size | Moderate at 100 μM | – | – | IC50 (hRSV (strain A2); BSC-1, 96 h, hRSV, BSC1 cells, 4 day assay): 16.5 µM; Solubility behaviour in cell medium [1]: moderately soluble; Toxicity in plaque assay (BSC1 cells): some toxicity
8 | Cc1ccccc1NC(=O)Nc1cccc(C(F)(F)F)c1 [Compound 40, 1-(o-tolyl)-3-(3-(trifluoromethyl)phenyl)urea] | Low | – | Good | – | – | Inhibition of plaque formation (hRSV (strain A2); hRSV, BSC1 cells, 4 day assay): moderate inhibition; Toxicity in plaque assay (BSC1 cells): low toxicity
9 | Cc1ccccc1NC(=O)Nc1ccc(SC(F)(F)F)cc1 [Compound 42, 1-(o-tolyl)-3-(4-((trifluoromethyl)thio)phenyl)urea] | Very toxic at 100 μM | – | Good | – | Plaques reduced | –
10 | Cc1ccccc1NC(=O)Nc1ccc(OC(F)(F)F)cc1 [Compound 43, 1-(o-tolyl)-3-(4-(trifluoromethoxy)phenyl)urea] | Toxic at 100 μM | – | Good | – | Plaques reduced | –
11 | Cc1ccccc1NC(=O)Nc1ccc(I)cc1 [Compound 44, 1-(4-iodophenyl)-3-(o-tolyl)urea] | Low | – | Moderate at 100 μM | – | Inactive | –
12 | COc1ccc(NC(=O)Nc2ccccc2C)cc1OC [Compound 45, 1-(3,4-dimethoxyphenyl)-3-(o-tolyl)urea] | Low | – | Good | – | Inactive | –

Reference: patent US9884812B2, “Use of DDX3X inhibitors for the treatment of pneumovirus infections” (priority 2014, dated 2018)
